Data reported in ChEMBL document CHEMBL1201862, “PubChem BioAssay data set” (2004).
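Exposure lasted 48 hours, with cells grown in 96-well plates and compounds tested at five concentrations. GI50 = concentration required for 50% inhibition of growth.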 Active and inactive are the calls of the source. Rule as the data show it: active = GI50 up to about 1.1 µM and inactive = higher.

What was measured:
Assay in all cases: inhibition of tumour cell growth, NCI panel, 48 h
A549 = tested on: A549
HCT-15 = tested on: HCT-15
HOP-62 = tested on: HOP-62
M14 = tested on: M14
RPMI-8226 = tested on: RPMI-8226
SK-MEL-2 = tested on: SK-MEL-2
SR = tested on: SR
U-251 = tested on: U-251
UACC-257 = tested on: UACC-257

SMILES: CCCCCCCCCCCCCCCCCC(=O)OCC1OC(OC)C(NC(=O)N(CCCl)N=O)C(O)C1O (centres undefined)
- GI50 (A549): 18.1 µM (inactive)
- GI50 (HCT-15): 36.1 µM
- GI50 (HOP-62): > 100 µM (inactive)
- GI50 (M14): 27.8 µM (inactive)
- GI50 (RPMI-8226): 20.3 µM (inactive)
- GI50 (SK-MEL-2): 45.9 µM (inactive)
- GI50 (SR): 9.04 µM (inactive)
- GI50 (U-251): > 10 µM (inactive)
- GI50 (UACC-257): 16.8 µM (inactive)
